In US20250368666A1, “INDAZOLE COMPOUNDS” (TYRA BIOSCIENCES, INC., priority 2022, published 2025):

How the values were obtained:
FGFR1 = target: T1, FGFR1 (Homo sapiens, UniProt P11362); test: Kinase binding assay (kinase-tagged T7 phage, affinity beads, qPCR), Kd; settings: read-out: FGFR1 (Kd nM)
T1 construct: made in house; host or cells: E. coli (BL21-derived), T7 phage
Method in brief: (§1)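 Competition binding; kinase-tagged T7 phage lysate vs immobilised biotinylated ligand on streptavidin beads, 0.9% DMSO final. 11-pt 3-fold dilutions, 3 DMSO controls. qPCR of eluted kinase; Kd by Hill fit, slope −1.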

FGFR4 = target: T2, FGFR4 (Homo sapiens, UniProt P22455); test: as above; settings: read-out: FGFR4 (Kd nM)
T2 construct: made in house; host or cells: E. coli (BL21-derived), T7 phage
Method in brief: as §1

FGFR2 = target: T3, FGFR2 (Homo sapiens, UniProt P21802); test: as above; settings: read-out: FGFR2 (Kd nM)
T3 construct: made in house; host or cells: E. coli (BL21-derived), T7 phage
Method in brief: as §1

FGFR3 (V555M) = target: T4, FGFR3 (V555M) (Homo sapiens, UniProt P22607, V555M); test: as above; settings: V555M mutant; read-out: FGFR3 (V555M) (Kd nM)
T4 construct: made in house; host or cells: E. coli (BL21-derived), T7 phage
Method in brief: as §1

FGFR3 = target: T5, FGFR3 (Homo sapiens, UniProt P22607); test: as above; settings: read-out: FGFR3 (Kd nM)
T5 construct: made in house; host or cells: E. coli (BL21-derived), T7 phage
Method in brief: as §1

[1] = tested on: KG-1 cell line (FGFR 1-fusion); test: Cancer cell line cell viability assay (Cell Titer-Glo), 72 hr; format: cell-based; settings: Homo sapiens, KG-1, KG-1 cell line (FGFR1-fusion)
Method in brief: (§2)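 5,000-20,000 cells/well o/n; cpd 9-pt 4x dil from 3 μM, n=3; 37° C/5% CO2; CTG 2.0 lumi; % DMSO ctrl; 4PL IC50.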

[2] = tested on: RT112/84 cell line (FGFR3-fusion); test: as above; format: cell-based; settings: Homo sapiens, RT112/84, RT112/84 cell line (FGFR3-fusion)
Method in brief: as §2

[3] = tested on: KATO-III cell line (FGFR2 amplification); test: as above; format: cell-based; settings: Homo sapiens, KATO III
Method in brief: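 Intracellular ATP was measured by Cell Titer-Glo 2.0 luminescence after cells were incubated with compound dilutions (top 3 μM, 4-fold, 9 doses). Values were expressed relative to DMSO-treated cells and IC50 was calculated from a variable-slope dose-response curve.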

T5 sequence (P22607 23-806): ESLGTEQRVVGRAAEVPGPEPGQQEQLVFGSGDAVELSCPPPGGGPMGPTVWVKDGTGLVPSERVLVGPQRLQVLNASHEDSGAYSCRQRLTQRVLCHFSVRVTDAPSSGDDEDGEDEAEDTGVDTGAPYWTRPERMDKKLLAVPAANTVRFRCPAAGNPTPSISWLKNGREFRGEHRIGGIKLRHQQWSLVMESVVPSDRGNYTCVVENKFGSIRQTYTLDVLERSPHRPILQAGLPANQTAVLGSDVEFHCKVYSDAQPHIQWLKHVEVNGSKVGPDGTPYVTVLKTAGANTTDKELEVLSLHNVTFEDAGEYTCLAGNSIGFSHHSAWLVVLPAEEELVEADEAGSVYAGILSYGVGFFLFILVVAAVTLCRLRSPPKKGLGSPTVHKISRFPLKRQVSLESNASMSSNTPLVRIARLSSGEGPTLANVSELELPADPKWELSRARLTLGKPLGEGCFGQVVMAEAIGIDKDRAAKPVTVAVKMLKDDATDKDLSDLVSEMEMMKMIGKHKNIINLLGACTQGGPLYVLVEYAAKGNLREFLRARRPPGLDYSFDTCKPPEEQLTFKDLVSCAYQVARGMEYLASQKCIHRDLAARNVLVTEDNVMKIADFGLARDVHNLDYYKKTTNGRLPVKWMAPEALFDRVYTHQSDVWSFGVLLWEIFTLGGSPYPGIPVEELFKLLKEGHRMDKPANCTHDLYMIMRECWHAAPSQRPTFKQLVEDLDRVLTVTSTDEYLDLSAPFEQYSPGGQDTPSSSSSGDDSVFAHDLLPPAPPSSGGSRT
T3 sequence (P21802 22-821): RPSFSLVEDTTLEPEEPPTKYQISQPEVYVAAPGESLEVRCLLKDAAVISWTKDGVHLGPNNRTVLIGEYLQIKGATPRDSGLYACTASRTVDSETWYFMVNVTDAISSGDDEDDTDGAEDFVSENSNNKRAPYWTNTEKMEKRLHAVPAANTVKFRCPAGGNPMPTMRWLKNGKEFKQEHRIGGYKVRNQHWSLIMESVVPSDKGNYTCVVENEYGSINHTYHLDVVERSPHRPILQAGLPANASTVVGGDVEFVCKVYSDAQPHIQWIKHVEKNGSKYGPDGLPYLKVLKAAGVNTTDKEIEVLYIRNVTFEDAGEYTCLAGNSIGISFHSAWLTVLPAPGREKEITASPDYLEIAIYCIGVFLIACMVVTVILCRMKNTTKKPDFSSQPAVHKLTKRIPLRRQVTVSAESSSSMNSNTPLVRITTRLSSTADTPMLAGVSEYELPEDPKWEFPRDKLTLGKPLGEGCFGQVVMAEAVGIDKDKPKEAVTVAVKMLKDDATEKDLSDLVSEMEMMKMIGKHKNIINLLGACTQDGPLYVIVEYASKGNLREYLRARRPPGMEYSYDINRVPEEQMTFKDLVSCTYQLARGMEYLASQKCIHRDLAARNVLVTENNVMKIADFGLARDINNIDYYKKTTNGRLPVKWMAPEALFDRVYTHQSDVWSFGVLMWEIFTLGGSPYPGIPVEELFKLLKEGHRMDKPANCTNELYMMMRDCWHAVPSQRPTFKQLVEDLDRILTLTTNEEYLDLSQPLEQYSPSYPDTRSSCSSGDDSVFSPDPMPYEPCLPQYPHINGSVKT
T2 sequence (P22455 22-802): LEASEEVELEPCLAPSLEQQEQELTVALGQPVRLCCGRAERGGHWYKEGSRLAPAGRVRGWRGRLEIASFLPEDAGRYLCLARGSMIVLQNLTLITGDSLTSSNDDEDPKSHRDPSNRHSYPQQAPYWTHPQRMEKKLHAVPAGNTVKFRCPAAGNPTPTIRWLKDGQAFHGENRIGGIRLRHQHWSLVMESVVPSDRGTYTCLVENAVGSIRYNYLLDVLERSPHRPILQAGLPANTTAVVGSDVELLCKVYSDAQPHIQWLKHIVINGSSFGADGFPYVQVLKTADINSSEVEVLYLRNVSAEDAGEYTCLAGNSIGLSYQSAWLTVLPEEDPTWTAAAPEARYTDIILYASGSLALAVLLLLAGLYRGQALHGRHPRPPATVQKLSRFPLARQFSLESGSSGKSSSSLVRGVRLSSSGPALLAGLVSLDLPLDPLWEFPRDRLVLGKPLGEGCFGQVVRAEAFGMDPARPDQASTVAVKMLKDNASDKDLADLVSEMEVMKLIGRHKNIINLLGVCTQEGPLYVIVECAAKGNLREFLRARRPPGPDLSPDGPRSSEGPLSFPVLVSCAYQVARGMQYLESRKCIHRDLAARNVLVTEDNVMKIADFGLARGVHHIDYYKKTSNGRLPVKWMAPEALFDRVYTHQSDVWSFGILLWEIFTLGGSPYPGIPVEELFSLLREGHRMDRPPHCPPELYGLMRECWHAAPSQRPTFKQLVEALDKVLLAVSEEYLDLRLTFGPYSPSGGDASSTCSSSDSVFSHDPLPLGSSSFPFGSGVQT
T1 sequence (P11362 22-822): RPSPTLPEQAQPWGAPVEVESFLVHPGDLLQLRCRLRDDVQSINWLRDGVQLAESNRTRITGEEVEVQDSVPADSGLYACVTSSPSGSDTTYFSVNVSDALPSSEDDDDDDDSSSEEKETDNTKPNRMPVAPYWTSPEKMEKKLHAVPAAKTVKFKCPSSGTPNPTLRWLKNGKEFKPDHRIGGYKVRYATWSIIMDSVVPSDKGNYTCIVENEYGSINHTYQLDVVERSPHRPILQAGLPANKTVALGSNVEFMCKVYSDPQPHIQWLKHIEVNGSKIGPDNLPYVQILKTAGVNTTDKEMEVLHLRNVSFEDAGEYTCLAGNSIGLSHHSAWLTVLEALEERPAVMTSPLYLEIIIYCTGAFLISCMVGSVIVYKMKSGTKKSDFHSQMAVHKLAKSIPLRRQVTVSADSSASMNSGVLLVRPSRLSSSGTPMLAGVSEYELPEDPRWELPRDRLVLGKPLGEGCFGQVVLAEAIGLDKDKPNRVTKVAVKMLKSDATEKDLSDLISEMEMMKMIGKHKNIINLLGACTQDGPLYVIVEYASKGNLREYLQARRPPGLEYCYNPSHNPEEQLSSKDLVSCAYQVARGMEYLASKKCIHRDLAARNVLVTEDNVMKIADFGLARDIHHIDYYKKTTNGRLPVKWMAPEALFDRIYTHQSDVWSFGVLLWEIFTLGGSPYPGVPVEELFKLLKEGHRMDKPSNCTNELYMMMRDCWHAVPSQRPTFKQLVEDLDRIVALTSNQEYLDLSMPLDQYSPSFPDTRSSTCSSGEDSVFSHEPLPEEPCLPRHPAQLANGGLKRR
T4 sequence (P22607 23-806 V555M): as the sequence (P22607 23-806) above, with V533M counted along it

Row | SMILES | Kd (FGFR1) | Kd (FGFR4) | Kd (FGFR2) | Kd (FGFR3 (V555M)) | Kd (FGFR3) | IC50 [1] | IC50 [2] | IC50 [3]
1 | C[C@H](O)CNC1(C)CN(c2ccc(-c3n[nH]c4ccc(O[C@H](C)c5c(Cl)cncc5Cl)cc34)cn2)C1 [Example 90, (S)-1-((1-(5-(5-((R)-1-(3,5-dichloropyridin-4-yl)ethoxy)-1H-indazol-3-yl)pyridin-2-yl)-3-methylazetidin-3-yl)amino)propan-2-ol] | 1 to 50 nM | 1 to 50 nM | 1 to 50 nM | 1 to 50 nM | 1 to 50 nM | 0.1 to 50 nM | 0.1 to 50 nM | 0.1 to 50 nM
2 | C[C@@H](Oc1ccc2[nH]nc(-c3ccc(N4CC(C)(OCC(C)(C)O)C4)nc3)c2c1)c1c(Cl)cncc1Cl [Example 93, (R)-1-((1-(5-(5-(1-(3,5-dichloropyridin-4-yl)ethoxy)-1H-indazol-3-yl)pyridin-2-yl)-3-methylazetidin-3-yl)oxy)-2-methylpropan-2-ol] | 1 to 50 nM | 1 to 50 nM | 1 to 50 nM | 1 to 50 nM | 1 to 50 nM | 50 to 200 nM | 0.1 to 50 nM | 0.1 to 50 nM
3 | C[C@@H](Oc1ccc2[nH]nc(-c3ccc(N4CC(C)(NC(=O)CN(C)C)C4)nc3)c2c1)c1c(Cl)cncc1Cl [Example 95, (R)-N-(1-(5-(5-(1-(3,5-dichloropyridin-4-yl)ethoxy)-1H-indazol-3-yl)pyridin-2-yl)-3-methylazetidin-3-yl)-2-(dimethylamino)acetamide] | 1 to 50 nM | 1 to 50 nM | 1 to 50 nM | 1 to 50 nM | 1 to 50 nM | 0.1 to 50 nM | 0.1 to 50 nM | 0.1 to 50 nM
4 | COC1(C)CN(C2(C)CN(c3ncc(-c4n[nH]c5ccc(O[C@H](C)c6c(Cl)cncc6Cl)cc45)cc3F)C2)C1 [Example 97, (R)-5-(1-(3,5-dichloropyridin-4-yl)ethoxy)-3-(5-fluoro-6-(3-methoxy-3,3′-dimethyl-[1,3′-biazetidin]-1′-yl)pyridin-3-yl)-1H-indazole] | 1 to 50 nM | 1 to 50 nM | 1 to 50 nM | 1 to 50 nM | 1 to 50 nM | 50 to 200 nM | 0.1 to 50 nM | 0.1 to 50 nM

Second part, the compound after the results:

Row | Kd (FGFR1) | Kd (FGFR4) | Kd (FGFR2) | Kd (FGFR3 (V555M)) | Kd (FGFR3) | IC50 [1] | IC50 [2] | IC50 [3] | SMILES
5 | 1 to 50 nM | 1 to 50 nM | 1 to 50 nM | 1 to 50 nM | 1 to 50 nM | 0.1 to 50 nM | 0.1 to 50 nM | 0.1 to 50 nM | C[C@@H](Oc1ccc2[nH]nc(-c3ccc(N4CC(C)(NCCO)C4)nc3)c2c1)c1c(Cl)cncc1Cl [Example 89, (R)-2-((1-(5-(5-(1-(3,5-dichloropyridin-4-yl)ethoxy)-1H-indazol-3-yl)pyridin-2-yl)-3-methylazetidin-3-yl)amino)ethan-1-ol]
6 | 1 to 50 nM | 1 to 50 nM | 1 to 50 nM | 1 to 50 nM | 1 to 50 nM | 0.1 to 50 nM | 0.1 to 50 nM | 0.1 to 50 nM | C[C@@H](O)CNC1(C)CN(c2ccc(-c3n[nH]c4ccc(O[C@H](C)c5c(Cl)cncc5Cl)cc34)cn2)C1 [Example 91, (R)-1-((1-(5-(5-((R)-1-(3,5-dichloropyridin-4-yl)ethoxy)-1H-indazol-3-yl)pyridin-2-yl)-3-methylazetidin-3-yl)amino)propan-2-ol]
7 | 1 to 50 nM | 1 to 50 nM | 1 to 50 nM | 1 to 50 nM | 1 to 50 nM | 0.1 to 50 nM | 0.1 to 50 nM | 0.1 to 50 nM | C[C@@H](Oc1ccc2[nH]nc(-c3cnc(N4CC(C)(N5CC(C)(O)C5)C4)c(F)c3)c2c1)c1c(Cl)cncc1Cl [Example 96, (R)-1′-(5-(5-(1-(3,5-dichloropyridin-4-yl)ethoxy)-1H-indazol-3-yl)-3-fluoropyridin-2-yl)-3,3′-dimethyl-[1,3′-biazetidin]-3-ol]
